Source: article PMC6010082, “Synthesis and in vitro antiproliferative and antibacterial activity of new thiazolidine-2,4-dione derivatives” (Journal of Enzyme Inhibition and Medicinal Chemistry, 2017)
Values after ≈ are worked out from the molar mass of the structure shown.

Tests used:
[1] = tested on: methicillin-resistant S. aureus MIKROBANK 14.001; test: Broth microdilution MIC, methicillin-resistant S. aureus; type: cell-based, Staphylococcus aureus; conditions: methicillin-resistant strain, 18 h, 35 °C; for MIC: Staphylococcus aureus, read-out: Minimal inhibitory concentration MIC, Staphylococcus aureus MIKROBANK 14.001
Method: (§1) Newly synthesised compounds’ antibacterial activities were tested in vitro against six aerobic bacteria reference strains: three Gram-positive (Staphylococcus aureus ATCC 25923, methicillin-resistant S. aureus MIKROBANK 14.001 reference strain from National Medicines Institute in Warsaw, and Staphylococcus epidermidis ATCC 12228) and three Gram-negative (Escherichia coli ATCC 25922, Proteus mirabilis ATCC 12453, and Pseudomonas aeruginosa ATCC 9027).
(§2) Bacterial cell suspensions equivalent to 0.5 McFarland (1.5 × 10^8 CFU/ml) were prepared in 0.85% sterile saline. Tested compounds’ stock solutions (50 mg/ml) were dissolved in dimethyl sulphoxide (DMSO).
(§3) Bacteria strain susceptibility to tested agents was determined by broth microdilution method. Broth microdilution method was carried out in accordance with Clinical and Laboratory Standards Institute recommendations and was used as reference method. Mueller–Hinton broth containing two-fold dilutions of the tested substances (at concentrations ranging from 3.91 to 1000 µg/ml) was used to determine their minimal inhibitory concentration (MIC) which is the lowest concentration of an antibacterial that will inhibit the visible growth of a microorganism after 18 h of incubation). Mueller–Hinton broth is recommended as the medium of choice for susceptibility testing of commonly isolated, rapidly growing aerobic, or facultative organisms. Gentamicin (KRKA, Slovenia), an aminoglycoside antibiotic active against a wide range of human bacterial infections, mostly Gram-negative bacteria including Pseudomonas, Proteus, Serratia, and the Gram-positive Staphylococcus, was used as a control antibacterial agent (at concentration from 0.12 µg to 1000 µg).
(§4) Tested compounds two-fold dilutions in Mueller–Hinton broth without bacteria were blank control wells (incubated on equal conditions). Polystyrene trays containing 96 wells were filled with serial two-fold Mueller–Hinton broth dilutions of tested agents. Next, the broth was inoculated with 20 μl of 0.5 McFarland microbial suspension (previously diluted 1:10 by Mueller–Hinton broth). Total volume per each well was 200 μl. After incubation (at 35 °C for 18 h), bacterial cultures’ optical density was measured by microplate reader (BioTek Synergy H4 Hybrid Reader) at 600 nm. The MIC values were determined by the comparison of broth bacterial culture OD600 containing tested concentrations of examined substances to blank control wells.

[2] = tested on: Staphylococcus epidermidis ATCC 12228; test: Broth microdilution MIC, S. epidermidis ATCC 12228; type: cell-based; conditions: 35 °C; for MIC: Staphylococcus epidermidis, ATCC12228, 18 h, read-out: Minimal inhibitory concentration MIC, Staphylococcus epidermidis 12228
Method: as §1, §2, §3, §4

[3] = tested on: Staphylococcus aureus ATCC 25923; test: Broth microdilution MIC, S. aureus ATCC 25923; type: cell-based; conditions: 35 °C; for MIC: Staphylococcus aureus, ATCC25923, 18 h, read-out: Minimal inhibitory concentration MIC, Staphylococcus aureus 25923
Method: as §1, §2, §3, §4

[4] = tested on: normal human skin fibroblasts (BJ); test: MTT assay, normal fibroblasts BJ; type: cell-based; conditions: Skin fibroblast, 48 h exposure, read-out: IC50 [µg/ml] ± SEM, BJ
Method: (§5) The experiment was carried out using normal human skin fibroblasts (BJ) and tumour cell lines: human lung carcinoma (A549), human hepatocellular carcinoma (HepG2), and human breast adenocarcinoma (MCF-7). All cell lines were obtained from ATCC (American Type Culture Collection, England, UK) and cultured in the appropriate, recommended by ATCC, culture medium, additionally supplemented with 10% foetal bovine serum and antibiotics: 100 U/ml penicillin and 100 µg/ml streptomycin. The cells were maintained at 37 °C in a humidified atmosphere of 5% CO2 and 95% air. Antiproliferative activity of the new compounds was assessed by, commonly used for this purpose, colorimetric MTT assay. Cells with active mitochondrial dehydrogenases reduced intracellularly the tetrazolium dye into purple formazan, which is proportional to the number of viable cells. The cells were seeded in 96-multiwell plates in 100 μl of the appropriate complete culture medium at a concentration of 7 × 10^3 cells/well in the case of BJ cells (normal fibroblasts), 1 × 10^4 cells/well in the case of A549 cells (lung cancer), 1.5 × 10^4 cells/well in the case of HepG2 cells (liver cancer), and 2 × 10^4 cells/well in the case of MCF-7 cells (breast cancer) so as to obtain 60–70% confluent culture after 24 h of incubation at 37 °C – the cells are then in the log (logarithmic) phase, during a period of active proliferation, but still have an unoccupied space to divide. Afterwards, the culture medium was discarded and replaced with 100 µl of different concentrations of new tested compounds and reference antiproliferative agent: irinotecan. The stock solutions of the compounds were prepared in DMSO, and solvent control was being tested concurrently to exclude toxicity attributed to DMSO. Ten serial two-fold dilutions using culture medium were performed to prepare different concentrations of the tested compounds, and the highest tested concentration was 200 µg/ml. Untreated cells (maintained in the complete culture medium) served as a negative control. After exposing cells for 48 h to the tested derivatives, the MTT assay was performed as described earlier. Three independent experiments (n = 3) were performed in a quadruplicate. The obtained data were analysed using GraphPad Prism 5, version 5.03 software (La Jolla, CA). […] Moreover, safety index (SI) was calculated using the following formula: SI=IC50normal cells (BJ)/IC50cancer cells

[5] = tested on: human breast adenocarcinoma (MCF-7); test: MTT antiproliferative assay, MCF-7 cells; type: cell-based; conditions: for IC50: Homo sapiens, MCF7, MCF-7 cells, MTT, 48 h exposure, read-out: IC50 [µg/ml] ± SEM, MCF-7; for SI [IC50BJ/IC50], MCF-7: safety index = IC50 normal cells (BJ)/IC50 MCF-7
Method: as §5

[6] = tested on: human hepatocellular carcinoma (HepG2); test: MTT antiproliferative assay, HepG2 cells; type: cell-based; conditions: for IC50: Homo sapiens, HepG2 cells, MTT, 48 h exposure, read-out: IC50 [µg/ml] ± SEM, HepG2; for SI [IC50BJ/IC50], HepG2: safety index = IC50 normal cells (BJ)/IC50 HepG2
Method: as §5

[7] = tested on: human lung carcinoma (A549); test: MTT antiproliferative assay, A549 cells; type: cell-based; conditions: for IC50: Homo sapiens, A549 cells, MTT, 48 h exposure, read-out: IC50 [µg/ml] ± SEM, A549; for SI [IC50BJ/IC50], A549: safety index = IC50 normal cells (BJ)/IC50 A549
Method: as §5

MIC [1] | MIC [2] | MIC [3] | melting point | SMILES | IC50 [4] | further results
500 µg/mL | 500 µg/mL | 500 µg/mL | 244 to 245 °C | O=C(CC1SC(=O)NC1=O)Oc1cccc(C=NNC(=O)c2cccc(Cl)c2)c1 (stereo not drawn) [Compound 12, 3-{[2-(3-Chlorobenzoyl)hydrazinylidene]methyl}phenyl (2,4-dioxo-1,3-thiazolidin-5-yl)acetate] | – | –
500 µg/mL | 500 µg/mL | 500 µg/mL | 198 to 200 °C | O=C(CC1SC(=O)NC1=O)Oc1cccc(C=NNC(=O)c2ccc(Cl)cc2Cl)c1 (stereo not drawn) [Compound 13, 3-{[2-(2,4-Dichlorobenzoyl)hydrazinylidene]methyl}phenyl (2,4-dioxo-1,3-thiazolidin-5-yl)acetate] | – | –
– | – | – | 215 to 216 °C | O=C(CC1SC(=O)NC1=O)Oc1ccc(C=NNC(=O)c2cccc(Cl)c2)cc1 (stereo not drawn) [Compound 14, 4-{[2-(3-Chlorobenzoyl)hydrazinylidene]methyl}phenyl (2,4-dioxo-1,3-thiazolidin-5-yl)acetate] | – | –
500 µg/mL | 500 µg/mL | 500 µg/mL | 196 to 198 °C | O=C(CC1SC(=O)NC1=O)Oc1ccc(C=NNC(=O)c2ccc(Cl)cc2Cl)cc1 (stereo not drawn) [Compound 15, 4-{[2-(2,4-Dichlorobenzoyl)hydrazinylidene]methyl}phenyl (2,4-dioxo-1,3-thiazolidin-5-yl)acetate] | – | –
– | – | – | 220 to 222 °C | COc1cc(C=NNC(=O)c2cccc(Cl)c2)ccc1OC(=O)CC1SC(=O)NC1=O (stereo not drawn) [Compound 16, 4-{[2-(3-Chlorobenzoyl)hydrazinylidene]methyl}-2-methoxyphenyl (2,4-dioxo-1,3-thiazolidin-5-yl)acetate] | 163.3 ± 1.34 µg/mL (≈ 354 µM) | IC50 [5]: 117 ± 1.23 µg/mL (≈ 254 µM); SI [IC50BJ/IC50], MCF-7 [5]: 1.39
250 µg/mL | 500 µg/mL | 250 µg/mL | 186 to 188 °C | COc1cc(C=NNC(=O)c2ccc(Cl)cc2Cl)ccc1OC(=O)CC1SC(=O)NC1=O (stereo not drawn) [Compound 17, 4-{[2-(2,4-Dichlorobenzoyl)hydrazinylidene]methyl}-2-methoxyphenyl (2,4-dioxo-1,3-thiazolidin-5-yl)acetate] | – | –
– | – | – | 282 to 283 °C | O=C(C=C1SC(=O)NC1=O)Oc1cccc(C=NNC(=O)c2cccc(Cl)c2)c1 [Compound 19, 3-{[2-(3-Chlorobenzoyl)hydrazinylidene]methyl}phenyl (2,4-dioxo-1,3-thiazolidin-5-ylidene)acetate] | – | –
– | – | – | 278 to 279 °C | O=C(C=C1SC(=O)NC1=O)Oc1ccc(C=NNC(=O)c2cccc(Cl)c2)cc1 [Compound 20, 4-{[2-(3-Chlorobenzoyl)hydrazinylidene]methyl}phenyl (2,4-dioxo-1,3-thiazolidin-5-ylidene)acetate] | 11.3 ± 1.05 µg/mL (≈ 26.4 µM) | IC50 [6]: 27 ± 1.02 µg/mL (≈ 62.7 µM); SI [IC50BJ/IC50], HepG2 [6]: 0.42
– | – | – | 246 to 248 °C | COc1cc(C=NNC(=O)c2cccc(Cl)c2)ccc1OC(=O)C=C1SC(=O)NC1=O [Compound 21, 4-{[2-(3-Chlorobenzoyl)hydrazinylidene]methyl}-2-methoxyphenyl (2,4-dioxo-1,3-thiazolidin-5-ylidene)acetate] | 31.4 ± 1.08 µg/mL (≈ 68.3 µM) | IC50 [6]: 48.4 ± 1.02 µg/mL (≈ 105 µM); SI [IC50BJ/IC50], HepG2 [6]: 0.65; IC50 [5]: 124 ± 1.63 µg/mL (≈ 270 µM); SI [IC50BJ/IC50], MCF-7 [5]: 0.25
– | – | – | 209 to 211 °C | O=C(CC1SC(=O)NC1=O)Oc1cccc(C=NNC(=S)Nc2ccccc2)c1 (stereo not drawn) [Compound 22, 3-{[2-(Phenylcarbamothioyl)hydrazinylidene]methyl}phenyl (2,4-dioxo-1,3-thiazolidin-5-yl)acetate] | 81.6 ± 1.11 µg/mL (≈ 190 µM) | IC50 [7]: 57.3 ± 1.19 µg/mL (≈ 134 µM); SI [IC50BJ/IC50], A549 [7]: 1.43; IC50 [6]: 48.3 ± 1.07 µg/mL (≈ 113 µM); SI [IC50BJ/IC50], HepG2 [6]: 1.69; IC50 [5]: 72 ± 1.1 µg/mL (≈ 168 µM); SI [IC50BJ/IC50], MCF-7 [5]: 1.13
250 µg/mL | 250 µg/mL | 250 µg/mL | 159 to 162 °C | O=C(CC1SC(=O)NC1=O)Oc1ccc(C=NNC(=S)Nc2ccccc2)cc1 (stereo not drawn) [Compound 25, 4-{[2-(Phenylcarbamothioyl)hydrazinylidene]methyl}phenyl (2,4-dioxo-1,3-thiazolidin-5-yl)acetate] | – | –
– | – | – | 182 to 184 °C | COc1cc(C=NNC(=S)Nc2ccccc2)ccc1OC(=O)CC1SC(=O)NC1=O (stereo not drawn) [Compound 26, 2-Methoxy-4-{[2-(phenylcarbamothioyl)hydrazinylidene]methyl}phenyl (2,4-dioxo-1,3-thiazolidin-5-yl)acetate] | – | –
125 µg/mL | 125 µg/mL | 125 µg/mL | 199 to 202 °C | O=C(C=C1SC(=O)NC1=O)Oc1ccc(C=NNC(=S)Nc2ccccc2)cc1 [Compound 27, 4-{[2-(Phenylcarbamothioyl)hydrazinylidene]methyl}phenyl (2,4-dioxo-1,3-thiazolidin-5-ylidene)acetate] | – | Minimal inhibitory concentration MIC, Staphylococcus aureus MIKROBANK 14.001 [1]: 125 µg/mL; Minimal inhibitory concentration MIC, Staphylococcus epidermidis 12228 ([2]; 18 h): 125 µg/mL; Minimal inhibitory concentration MIC, Staphylococcus aureus 25923 ([3]; 18 h): 125 µg/mL
125 µg/mL | 125 µg/mL | 125 µg/mL | 186 to 187 °C | COc1cc(C=NNC(=S)Nc2ccccc2)ccc1OC(=O)C=C1SC(=O)NC1=O [Compound 28, 2-Methoxy-4-{[2-(phenylcarbamothioyl)hydrazinylidene]methyl}phenyl (2,4-dioxo-1,3-thiazolidin-5-ylidene)acetate] | – | –
– | – | – | – | CCc1c2c(nc3ccc(OC(=O)N4CCC(N5CCCCC5)CC4)cc13)-c1cc3c(c(=O)n1C2)COC(=O)[C@]3(O)CC [Irinotecan, irinotecan, reference compound] | 38.7 ± 1.37 µg/mL (≈ 65.9 µM) | IC50 [7]: 39.7 ± 1.2 µg/mL (≈ 67.7 µM); SI [IC50BJ/IC50], A549 [7]: 0.97; IC50 [6]: 14.8 ± 1.24 µg/mL (≈ 25.2 µM); SI [IC50BJ/IC50], HepG2 [6]: 2.62; IC50 [5]: 21.1 ± 1.23 µg/mL (≈ 35.9 µM); SI [IC50BJ/IC50], MCF-7 [5]: 1.84
